Source: patent US5354862A, “Preparation and the use of halopropargylated cyclic quaternary ammonium compounds as antimicrobial agents” (Rohm and Haas Company, priority 1993, dated 1994)
Read-outs that look alike come from different tables or passages of the source.

Columns and labels:
Test in all cases: Broth two-fold serial dilution MIC test
Pseudomonas aeruginosa = format: cell-based, Pseudomonas aeruginosa (ATCC 15442); conditions: Psae
How it was run: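 Broth two-fold serial dilution MIC (500 to 0.25 ppm) was run against Pseudomonas aeruginosa, with compound from 1% stock in acetone/methanol/water 5:3:2. Vessels inoculated with standardized broth-grown cells were incubated, then scored for growth. MIC is the lowest concentration giving complete growth inhibition.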

Aspergillus niger = format: cell-based, Aspergillus niger (ATCC 6275); conditions: Anig, TSB media
How it was run: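 Two-fold broth serial dilution from 500 ppm down to 0.25 ppm, compound stock in acetone/methanol/water 5:3:2. Vessels inoculated with standardized spore suspension harvested from agar slants, incubated at a species-appropriate temperature, then scored for growth/no growth. MIC is the lowest concentration giving complete growth inhibition.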

Escherichia coli = format: cell-based, Escherichia coli (ATCC 11229); conditions: Ecol
How it was run: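 Broth two-fold serial dilutions ran from 500 down to 0.25 ppm, prepared from a stock in acetone/methanol/water (5:3:2). Each tube received a standardized bacterial suspension and was incubated at a temperature suited to the species. MIC is the lowest concentration giving complete growth inhibition.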

Staphylococcus aureus = format: cell-based, Staphylococcus aureus (ATCC 6538); conditions: Saur
How it was run: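 Broth two-fold serial dilution from 500 ppm down to 0.25 ppm, compound delivered from acetone/methanol/water stock, inoculated with standardized cell suspension and incubated at an organism-appropriate temperature. MIC is the lowest concentration giving complete growth inhibition.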

[1] = Pseudomonas aeruginosa, Table 2, M9G media, read-out: MIC
[2] = Escherichia coli, Table 2, M9G media, read-out: MIC
[3] = Escherichia coli, Table 2, TSB media, read-out: MIC
[4] = Staphylococcus aureus, Table 2, M9G media, read-out: MIC
[5] = Pseudomonas aeruginosa, Table 2, TSB media, read-out: MIC
[6] = Aspergillus niger, Table 2, read-out: MIC
[7] = Staphylococcus aureus, Table 2, TSB media, read-out: MIC

Row | Compound | MIC (Pseudomonas aeruginosa; Table 2, M9G media) [ppm] | MIC (Pseudomonas aeruginosa; Table 2, TSB media) [ppm] | MIC (Aspergillus niger; Table 2) [ppm] | MIC (Escherichia coli; Table 2, M9G media) [ppm] | MIC (Escherichia coli; Table 2, TSB media) [ppm] | MIC (Staphylococcus aureus; Table 2, M9G media) [ppm] | MIC (Staphylococcus aureus; Table 2, TSB media) [ppm] | MIC (Pseudomonas aeruginosa; [1]) [µg/mL] | MIC (Escherichia coli; [2]) [µg/mL] | MIC (Escherichia coli; [3]) [µg/mL] | MIC (Staphylococcus aureus; [4]) [µg/mL] | MIC (Pseudomonas aeruginosa; [5]) [µg/mL] | MIC (Aspergillus niger; [6]) [µg/mL] | MIC (Staphylococcus aureus; [7]) [µg/mL] | MIC (Pseudomonas aeruginosa; Pseudomonas aeruginosa, Table 3 comparison, M9G media, read-out: MIC) [µg/mL] | MIC (Pseudomonas aeruginosa; Pseudomonas aeruginosa, Table 3 comparison, TSB media, read-out: MIC) [µg/mL] | MIC (Aspergillus niger; Aspergillus niger, Table 3 comparison, read-out: MIC) [µg/mL] | MIC (Escherichia coli; Escherichia coli, Table 3 comparison, TSB media, read-out: MIC) [µg/mL] | MIC (Staphylococcus aureus; Staphylococcus aureus, Table 3 comparison, M9G media, read-out: MIC) [µg/mL] | MIC (Staphylococcus aureus; Staphylococcus aureus, Table 3 comparison, TSB media, read-out: MIC) [µg/mL]
1 | CCCCCCCCCCCCCCC[N+]1(CC#CI)CCCC1 [Compound 38, 1-pentadecyl-1-(3-iodopropargyl)-pyrrolidinium methanesulfonate] | 32 | 63 | 0.5 | 1 | 8 | < 0.25 | < 0.25 | – | – | – | – | – | – | – | – | – | – | – | – | –
2 | CCCCCCCCCCCCCC[N+]1(CC#CI)CCOCC1 [Compound 28, 4-tetradecyl-4-(3-iodopropargyl)-morpholinium 4-methylbenzenesulfonate] | 4 | 4 | 8 | 1 | 2 | – | 0.25 | – | – | – | 0.25 | – | – | – | – | – | – | – | – | –
3 | CCCCCCCCCCCCCC[N+]1(CC#CI)CCCCC1 [Compound 59, 1-tetradecyl-1-(3-iodopropargyl)-piperidinium benzenesulfonate] | 32 | 125 | 8 | 8 | 16 | 4 | 4 | – | – | – | – | – | – | – | – | – | – | – | – | –
4 | OCCCCCCCCCCCC[N+]1(CC#CI)CCCCCC1 [Compound 27, 1-(12-hydroxydodecyl)-1-(3-iodopropargyl)-hexamethyleneiminium 4-methylbenzenesulfonate] | – | – | – | – | – | – | – | > 250 | – | 250 | 16 | > 250 | 32 | 32 | – | – | – | – | – | –
5 | CCCCCCCCCCCC[N+]1(CC#CI)CCCC1 [Compound 13, 1-dodecyl-1-(3-iodopropargyl)-pyrrolidinium 4-methylbenzenesulfonate] | – | 250 | 16 | 32 | 32 | 1 | 16 | 32 | – | – | – | – | – | – | – | – | – | – | – | –
6 | CCCCCCCCCCCCCC[N+]1(CC#CI)CCCCC1 [Compound 62, 1-tetradecyl-1-(3-iodopropargyl)-piperidinium methanesulfonate] | 16 | 63 | 0.25 | 2 | 4 | 0.25 | 0.25 | – | – | – | – | – | – | – | – | – | – | – | – | –
7 | CCCCCCCCCCCCCCCCCC[N+]1(CC#CI)CCCC1 [Compound 16, t-octadecyl-1-(3-iodopropargyl)-pyrrolidinium 4-methylbenzenesulfonate] | – | – | – | – | – | – | – | 500 | 16 | 63 | 1 | 500 | 32 | 1 | – | – | – | – | – | –
8 | CCCCCCCCCCCCCCCC[N+]1(CC#CI)CC(C)OC(C)C1 (stereo not shown) [Compound 48, 4-hexadecyl-4-(3-iodopropargyl)-2,6-dimethylmorpholinium methanesulfonate] | 8 | 8 | 1 | 2 | – | < 0.25 | 0.5 | – | – | – | – | – | – | – | – | – | – | – | – | –
9 | CCCCCCCCCCC[N+]1(CC#CI)CCCC1 [Compound 15, 1-undecyl-1-(3-iodopropargyl)-pyrrolidinium 4-methylbenzenesulfonate] | – | – | – | – | – | – | – | 32 | 1 | 2 | 0.25 | 32 | 16 | 0.25 | – | – | – | – | – | –
10 | C[N+]1(CC#CI)CCCCC1 [Compound 17, 1-Methyl-1-(3-Iodopropargyl)-Piperidinium 4-Methylbenzenesulfonate] | – | – | – | – | – | – | – | 250 | – | 250 | 32 | 125 | 125 | 32 | 250 | 125 | 125 | 250 | 32 | 32
11 | CCOC(=O)CC[N+]1(CC#CI)CCCCC1 [Compound 22, 1-(2-ethoxycarbonylethyl)-1-(3-iodopropargyl)-piperidinium 4-methylbenzenesulfonate] | – | – | – | – | – | – | – | > 250 | – | > 250 | > 250 | > 250 | 16 | > 250 | – | – | – | – | – | –

Second part, the molecule after the results:

Row | MIC (Pseudomonas aeruginosa; Table 2, M9G media) [ppm] | MIC (Pseudomonas aeruginosa; Table 2, TSB media) [ppm] | MIC (Aspergillus niger; Table 2) [ppm] | MIC (Escherichia coli; Table 2, M9G media) [ppm] | MIC (Escherichia coli; Table 2, TSB media) [ppm] | MIC (Staphylococcus aureus; Table 2, M9G media) [ppm] | MIC (Staphylococcus aureus; Table 2, TSB media) [ppm] | MIC (Pseudomonas aeruginosa; [1]) [µg/mL] | MIC (Escherichia coli; [2]) [µg/mL] | MIC (Escherichia coli; [3]) [µg/mL] | MIC (Staphylococcus aureus; [4]) [µg/mL] | MIC (Pseudomonas aeruginosa; [5]) [µg/mL] | MIC (Aspergillus niger; [6]) [µg/mL] | MIC (Staphylococcus aureus; [7]) [µg/mL] | MIC (Pseudomonas aeruginosa; Pseudomonas aeruginosa, Table 3 comparison, M9G media, read-out: MIC) [µg/mL] | MIC (Pseudomonas aeruginosa; Pseudomonas aeruginosa, Table 3 comparison, TSB media, read-out: MIC) [µg/mL] | MIC (Aspergillus niger; Aspergillus niger, Table 3 comparison, read-out: MIC) [µg/mL] | MIC (Escherichia coli; Escherichia coli, Table 3 comparison, TSB media, read-out: MIC) [µg/mL] | MIC (Staphylococcus aureus; Staphylococcus aureus, Table 3 comparison, M9G media, read-out: MIC) [µg/mL] | MIC (Staphylococcus aureus; Staphylococcus aureus, Table 3 comparison, TSB media, read-out: MIC) [µg/mL] | Compound
12 | 32 | 64 | 2 | 1 | 4 | 0.25 | 1 | – | – | – | – | – | – | – | – | – | – | – | – | – | CCCCCCCCCCCC[N+]1(CC#CI)CCCC1 [Compound 79, 1-dodecyl-1-(3-iodopropargyl)-pyrrolidinium bromide]
13 | – | 125 | 2 | – | – | 2 | 4 | 64 | 2 | 4 | – | – | – | – | – | – | – | – | – | – | CCCCCCCCCCCCOC(=O)C[N+]1(CC#CI)CCCC1 [Compound 63, 1-(dodecyloxycarbonyl)methyl-1-(3-iodopropargyl)-pyrrolidinium 4-methylbenzenesulfonate]
14 | 16 | 125 | 8 | 8 | 8 | 2 | 2 | – | – | – | – | – | – | – | – | – | – | – | – | – | CCCCCCCCCCCCCCCC[N+]1(CC#CI)CCCCC1 [Compound 61, 1-hexadecyl-1-(3-iodopropargyl)-piperidinium methanesulfonate]
15 | 500 | 500 | 16 | 16 | 32 | 8 | 32 | – | – | – | – | – | – | – | – | – | – | – | – | – | CCCCCCCCCCOC(=O)CC[N+]1(CC#CI)CCCC1 [Compound 98, l-[2-(decyloxycarbonyl)]ethyl-1-(3-iodopropargyl)-pyrrolidinium methanesulfonte]
16 | – | – | – | – | – | – | – | 64 | 2 | 8 | 0.5 | 250 | 125 | 8 | – | – | – | – | – | – | CCCCCCCCCCOC(=O)C[N+]1(CC#CI)CCOCC1 [Compound 66, 4-(decyioxycarbonyl)methyl-4-(3-iodopropargyl)-morpholiniurn 4methylbenzenesulfonate]
17 | 500 | > 500 | 16 | 8 | 64 | 32 | 64 | – | – | – | – | – | – | – | – | – | – | – | – | – | CCCCCCCCCCOC(=O)CC[N+]1(CC#CI)CCOCC1 [Compound 96]
18 | > 500 | > 500 | 64 | 64 | 125 | 125 | 250 | – | – | – | – | – | – | – | – | – | – | – | – | – | IC#CC[N+]1(Cc2ccccc2)CCOCC1 [Compound 74, 4-benzyl-4-(3-iodopropargyl)-morpholinium methanesulfonate]
19 | 8 | 63 | < 0.25 | < 0.25 | < 0.25 | < 0.25 | < 0.25 | – | – | – | – | – | – | – | – | – | – | – | – | – | CCCCCCCCCCCCCC[N+]1(CC#CI)C=NCC1.O=S(=O)([O-])c1ccccc1 (stereo not shown) [Compound 56, 1-(tetradecyl)-1-(3-iodopropargyl)-imidazolinium benzenesulfonate]
20 | – | – | – | – | – | – | – | > 500 | 125 | 125 | 500 | > 500 | > 500 | > 500 | – | – | – | – | – | – | CC[N+]1(CC#CI)CCOCC1 [Compound 94, 4-ethyl-4-(3-iodopropargyl)-morpholinium methanesulfonate]
21 | 8 | 8 | 1 | 1 | 2 | < 0.25 | 0.5 | – | – | – | – | – | – | – | – | – | – | – | – | – | CCCCCCCCCCCCCCCC[N+]1(CC#CI)CCOCC1 [Compound 49, 4-hexadecyl-4-(3-iodopropargyl)-morpholinium 4-methylbenzenesulfonate]
22 | – | – | – | – | – | – | – | 16 | 2 | 8 | 1 | 64 | 8 | 2 | – | – | – | – | – | – | CCCCCCCCCCCCC[N+]1(CC#CI)CCOCC1 [Compound 89, 4-tridecyl-4-(3-iodopropargyl)-morpholinium methanesulfonate]
23 | 8 | 32 | 4 | 1 | 4 | 0.25 | 0.25 | – | – | – | – | – | – | – | – | – | – | – | – | – | CCCCCCCCCCCCCC[N+]1(CC#CI)CCCC1 [Compound 69, 1-tetradecyl-1-(3-iodopropargyl)-pyrrolidinium bromide]
